From US20050086714A1, “Eucalyptus transformation method” (AGRIGENESIS BIOSCIENCES LIMITED, priority 2003, published 2005)

Tests used:
Assay type in all cases: cell-based, Eucalyptus grandis
[1] = system: co-cultivated internode explants of Eucalyptus clone Eg8; assay: Effect of kanamycin level on shoot regeneration from co-cultivated explants, Exp II
Procedure: (§1) Internode segment explants were prepared as described in Example 2 above. The explants were placed on a co-cultivation medium in a sideways orientation. The co-cultivation medium was usually EuCo19 (Table 2), although a similar medium could be employed. EuCo19 was based on the regeneration medium EuCo14, supplemented with 100 μM of acetosyringone. In addition, EuCo19 was solidified with gelrite while EuCo14 was solidified with agar. After 50 internode explants were placed on one medium plate, 1-2 μl of Agrobacterium cells were applied to each internode. The plate was then sealed and incubated at 22° C. under low intensity light (300 lux) for three days.
(§2) After 3 days of co-cultivation, the explants were transferred to regeneration/selection medium containing 20-50 mg/l kanamycin and 250 mg/l timentin. In a number of experiments, 10-30 explants from each treatment were taken from the selection medium at day 4 on the medium and tested for transient transgene expression using a GUS staining procedure described in Example 3.6 below.
(§3) In a follow-up experiment, 425 internode explants of the E. grandis clone C101 were co-cultivated with LBA4404 containing the binary vector pART69 and then transferred to selection media containing five different concentrations of kanamycin. The regeneration efficiencies were 100%, 17%, 8%, 3% and 1% from kanamycin concentrations of 0, 20, 30, 40 and 50 mg/l, respectively.

[2] = system: wild type internode explants of E. grandis clone 8 or C101; assay: Effect of kanamycin level on shoot regeneration from wild type explants
Procedure: A range of kanamycin concentrations (0, 5, 10, 15, 20, 30, 40 and 50 mg/l) were then tested in four experiments to determine the minimum level of kanamycin for inhibiting regeneration from the wild type internode explants (Table 5).
Fifty internode explants of the E. grandis clone 8 or C101 were cultured on each of the eight media consisting of EuCo14 supplemented with kanamycin at eight different concentrations, namely 0, 5, 10, 15, 20, 30, 40 and 50 mg/l. […] An excessive level of kanamycin kills non-transformed cells in the explant early in the selection stages. This will reduce the regeneration from transformed cells which would be surrounded by these dead non-transformed cells.

[3] = system: internode explants of Eucalyptus clone C101 co-cultivated with LBA4404 containing pART69; assay: Effect of kanamycin level on shoot regeneration from co-cultivated explants, Exp I
Procedure: as §1, §2, §3

## NC[C@H]1O[C@H](O[C@H]2[C@H](O)[C@@H](O[C@H]3O[C@H](CO)[C@@H](O)[C@H](N)[C@H]3O)[C@H](N)C[C@@H]2N)[C@H](O)[C@@H](O)[C@@H]1O [Kanamycin, kanamycin]
[1]; kanamycin 20 mg/l
  Regeneration Rate: 29%
[1]; kanamycin 30 mg/l
  Regeneration Rate: 12%
[1]; kanamycin 40 mg/l
  Regeneration Rate: 6%
[1]; kanamycin 50 mg/l
  Regeneration Rate: 4%
[2]; kanamycin 5 mg/L in EuCo14, Exp 3
  Regeneration Rate: 2%
[2]; kanamycin 5 mg/L in EuCo14, Exp 4
  Regeneration Rate: 10%
[2]; kanamycin 10 mg/L in EuCo14, Exp 3
  Regeneration Rate: 0%
[2]; kanamycin 10 mg/L in EuCo14, Exp 4
  Regeneration Rate: 0%
[2]; kanamycin 15 mg/L in EuCo14, Exp 3
  Regeneration Rate: 0%
[2]; kanamycin 15 mg/L in EuCo14, Exp 4
  Regeneration Rate: 0%
[2]; kanamycin 20 mg/L in EuCo14, Exp 1
  Regeneration Rate: 0%
[2]; kanamycin 20 mg/L in EuCo14, Exp 2
  Regeneration Rate: 4%
[2]; kanamycin 30 mg/L in EuCo14, Exp 1
  Regeneration Rate: 0%
[2]; kanamycin 30 mg/L in EuCo14, Exp 2
  Regeneration Rate: 0%
[2]; kanamycin 40 mg/L in EuCo14, Exp 1
  Regeneration Rate: 0%
[2]; kanamycin 40 mg/L in EuCo14, Exp 2
  Regeneration Rate: 0%
[2]; kanamycin 50 mg/L in EuCo14, Exp 1
  Regeneration Rate: 0%
[2]; kanamycin 50 mg/L in EuCo14, Exp 2
  Regeneration Rate: 0%
[3]; kanamycin 20 mg/l
  Regeneration Rate: 17%
[3]; kanamycin 20 mg/l, listed as kanamycin
  Regeneration Rate: 17%
[3]; kanamycin 30 mg/l
  Regeneration Rate: 8%
[3]; kanamycin 30 mg/l, listed as kanamycin
  Regeneration Rate: 8%
[3]; kanamycin 40 mg/l
  Regeneration Rate: 3%
[3]; kanamycin 40 mg/l, listed as kanamycin
  Regeneration Rate: 3%
[3]; kanamycin 50 mg/l
  Regeneration Rate: 1%
[3]; kanamycin 50 mg/l, listed as kanamycin
  Regeneration Rate: 1%
